Measurements from article PMC8621857, “Structural Insights into the Azole Resistance of the Candida albicans Darlington Strain Using Saccharomyces cerevisiae Lanosterol 14α-Demethylase as a Surrogate” (Journal of Fungi, 2021).
pKd: −log10 of the molar value.

Key:
[1] = test system: S. cerevisiae strain AD2Δ (native wild-type ScLDM); test: Broth microdilution drug susceptibility assay (MIC80), host strain AD2Δ; format: cell-based; conditions: Saccharomyces cerevisiae; strain AD2Δ; 48 h, 30 °C, pH 6.8; mean (± SEM), n = 3; read-out: MIC80
Experimental: Yeast strains used in this study (Supplementary Table S1) were prepared using the AD2Δ strain of S. cerevisiae as a host, using an established protocol. AD2Δ is hypersensitive to xenobiotics due to the deletion of seven major ABC transporters, including those responsible for the efflux of azole drugs. It is also deleted of the PDR3 transcriptional regulator, but contains the gain-of-function Pdr1-3 transcriptional regulator mutation that leads to constitutive overexpression from the PDR5 locus.
(§1) Azole susceptibility was measured as the mean drug concentration required to inhibit 80% of yeast growth (MIC80) compared to a non-drug control, using a standard broth microdilution assay. Serial dilutions of short- (FLC and VCZ), medium- (VT-1161), and long-tailed (ITC and PCZ) azole drugs, and the control drugs micafungin (MCF) and amphotericin B (AMB), were prepared in a 96-well microtiter plate in complete synthetic media lacking uracil, buffered to pH 6.8 [34]. Control and test cells were seeded at an optical density of 600 nm (OD600) of 0.005 (~1.5 × 10^4 colony forming units). After incubation for 48 h at 30 °C with constant agitation (200 rpm), the OD600 nm of each well was measured using a Synergy 2 multi-mode plate reader (BioTek Instruments, Winooski, VT, USA). The experiment was repeated three times (a total of nine measurements for the response of each strain to each drug). GraphPad Prism 5.0 software was used for statistical analysis, using a one-way analysis of variance with a Bonferroni post-hoc test. The statistical significance of comparisons was accepted when p < 0.05.

[2] = test system: S. cerevisiae strain AD3Δ ScErg11 (AD3Δ) overexpressing wild-type ScLDM6×His; test: Broth microdilution drug susceptibility assay (MIC80), strain AD3Δ ScErg11; format: cell-based, Saccharomyces cerevisiae; conditions: strain AD3Δ; for MIC80: Saccharomyces cerevisiae, 48 h, 30 °C, pH 6.8, mean (± SEM), n = 3, read-out: MIC80; for MIC80/Relative Amount of ScLDM6×His: relative expression 1
Experimental: (§2) The native ScERG11 gene in yeast cells containing mutant ScERG11-6×His constructs in the PDR5 locus was disrupted by homologous recombination with a cassette encoding the His1 selection marker and sequences homologous with the regions bordering the endogenous ScERG11 ORF to create strains AD3Δ ScErg11 Y140H, AD3Δ ScErg11 I471T and AD3Δ ScErg11Y140H I471T [43]. Transformants were selected on SD-His agar plates incubated at 30 °C for 48–72 h. Genomic DNA was extracted, and DNA sequencing as above was used to confirm deletion of the native ERG11. Strain AD3Δ ScErg11 (denoted as AD3Δ), which overexpresses wild-type ScLDM6×His from the PDR5 locus and has the native ScERG11 gene disrupted, was used as a control strain [43].
as §1

[3] = test system: S. cerevisiae strain AD3Δ ScErg11 Y140H expressing ScLDM6×His Y140H; test: Broth microdilution drug susceptibility assay (MIC80), strain AD3Δ ScErg11 Y140H; format: cell-based, Saccharomyces cerevisiae; conditions: for MIC80: Saccharomyces cerevisiae, 48 h, 30 °C, pH 6.8, mean (± SEM), n = 3; for MIC80 / MIC80/Relative Amount of ScLDM6×His / fold-resistance based on the relative amount of recombinant enzyme compared with strain AD3Δ: strain Y140H; for MIC80/Relative Amount of ScLDM6×His / fold-resistance based on the relative amount of recombinant enzyme compared with strain AD3Δ: relative expression 0.74
Experimental: as §2, §1

[4] = test system: S. cerevisiae strain AD3Δ ScErg11 I471T expressing ScLDM6×His I471T; test: Broth microdilution drug susceptibility assay (MIC80), strain AD3Δ ScErg11 I471T; format: cell-based, Saccharomyces cerevisiae; conditions: for MIC80: Saccharomyces cerevisiae, 48 h, 30 °C, pH 6.8, mean (± SEM), n = 3; for MIC80 / MIC80/Relative Amount of ScLDM6×His / fold-resistance based on the relative amount of recombinant enzyme compared with strain AD3Δ: strain I471T; for increased susceptibility compared with AD3Δ: strain AD3Δ ScErg11 I471T, not corrected for expression; for MIC80/Relative Amount of ScLDM6×His / fold-resistance based on the relative amount of recombinant enzyme compared with strain AD3Δ: relative expression 0.51
Experimental: as §2, §1

[5] = test system: S. cerevisiae strain AD3Δ ScErg11 Y140H I471T expressing ScLDM6×His Y140H I471T; test: Broth microdilution drug susceptibility assay (MIC80), strain AD3Δ ScErg11 Y140H I471T; format: cell-based, Saccharomyces cerevisiae; conditions: for MIC: Saccharomyces cerevisiae, strain Y140H + I471T, 48 h, 30 °C, pH 6.8, mean (± SEM), n = 3; for resistance conferred, relative expression taken into account: ScLDM6×His Y140H I471T (0.41 of wild-type) vs AD3Δ; for MIC80/Relative Amount of ScLDM6×His / fold-resistance based on the relative amount of recombinant enzyme compared with strain AD3Δ: strain Y140H+I471T, relative expression 0.41
Experimental: as §2, §1

[6] = test system: C. albicans strain SC5314; test: Agarose disk diffusion assay, control strain SC5314; format: cell-based, Candida albicans; conditions: for effect of Mdr1 inhibitor MCC1189 on azole susceptibility: SC5314, MCC1189 at 6 µM in the assay medium; for effect of Cdr1p inhibitor RC21v3 on azole susceptibility: SC5314, RC21v3 at 6 µM in the assay medium
Experimental: (§3) Agarose diffusion assays were carried out as described previously using the Darlington strain of C. albicans (Pfizer Ltd., Sandwich, UK) and the control C. albicans database strain SC5314, which is not resistant to azoles. The Cdr1p-specific inhibitor RC21v3 and the CaMdr1p-specific inhibitor MCC1189 (MicroCombiChem, Wiesbaden, Germany), included in the assay medium at 6 µM, were used to investigate the contribution of efflux pumps to azole resistance in the Darlington strain [49, 50, 51].

[7] = test system: C. albicans Darlington strain; test: Agarose disk diffusion assay, Darlington strain; format: cell-based, Candida albicans; conditions: for effect of Mdr1 inhibitor MCC1189 on azole susceptibility: MCC1189 at 6 µM in the assay medium; for effect of Cdr1p inhibitor RC21v3 on azole susceptibility: RC21v3 at 6 µM in the assay medium; for agarose diffusion susceptibility: no efflux pump inhibitor
Experimental: as §3

[8] = target: wild-type and Y140F/H mutants of ScLDM6×His; set-up: method as in earlier work; conditions: no significant differences, ref 5 (supplement; Sagatova et al. 2016); cited from earlier work
[9] = test system: Phakopspora pachyrhizi SDM Y131F I475T isolates; set-up: method as in PMID 23589453; conditions: isolates from soybean plants in Brazil; cited from earlier work

| Structure (SMILES) | MIC80 [1] | MIC80 [2] | MIC80/Relative Amount of ScLDM6×His [2] | MIC80 [3] | MIC80/Relative Amount of ScLDM6×His [3] | fold-resistance based on the relative amount of recombinant enzyme compared with strain AD3Δ [3] | MIC80 [4] | increased susceptibility compared with AD3Δ [4] | MIC80/Relative Amount of ScLDM6×His [4] | fold-resistance based on the relative amount of recombinant enzyme compared with strain AD3Δ [4] | MIC [5] | resistance conferred, relative expression taken into account [5] | MIC80/Relative Amount of ScLDM6×His [5] | fold-resistance based on the relative amount of recombinant enzyme compared with strain AD3Δ [5] | effect of Mdr1 inhibitor MCC1189 on azole susceptibility [6] | effect of Cdr1p inhibitor RC21v3 on azole susceptibility [6] | effect of Mdr1 inhibitor MCC1189 on azole susceptibility [7] | effect of Cdr1p inhibitor RC21v3 on azole susceptibility [7] | agarose diffusion susceptibility [7] | resistance conferred by the double mutation Y131F I475T [9] | further results |
| --- | --- | --- | --- | --- | --- | --- | --- | --- | --- | --- | --- | --- | --- | --- | --- | --- | --- | --- | --- | --- | --- |
| CC[C@@H]([C@H](C)O)n1ncn(-c2ccc(N3CCN(c4ccc(OC[C@@H]5CO[C@@](Cn6cncn6)(c6ccc(F)cc6F)C5)cc4)CC3)cc2)c1=O [PCZ, Posaconazole] | 0.16 µM | 0.423 µM | 423 nM | 0.33 µM | 445 nM | 1.1 × | 0.27 µM | 1.6 fold | 527 nM | 1.3 × | 0.265 µM | 1.5 fold | 646 nM | 1.5 × | no effect on susceptibility | increased susceptibility | no effect on susceptibility | increased susceptibility | resistant |  | susceptibility compared with AD3Δ cells ([3]; cells overexpressing ScLDM6×His Y140H, not corrected for expression): slightly increased susceptibility; pKd [8]: ~6.30 |
| O[C@@](Cn1cnnn1)(c1ccc(F)cc1F)C(F)(F)c1ccc(-c2ccc(OCC(F)(F)F)cc2)cn1 [VT-1161] | 0.0288 µM | 0.0754 µM | 75.4 nM | 0.116 µM | 157 nM | 2.1 × | 0.0346 µM | 2.2 fold | 67.9 nM | 0.90 × | 0.0676 µM | 2.2 fold | 165 nM | 2.2 × | did not alter the susceptibility | did not alter the susceptibility | did not alter the susceptibility | did not alter the susceptibility | resistant |  | resistance conferred, relative amount of recombinant ScLDM6×His taken into account ([3]; ScLDM6×His Y140H vs AD3Δ): 2.1 fold; resistance of cells containing the Y140H mutation in ScLDM6×His ([3]; discussion, significant but modest): 2 fold; MIC80 higher than strain AD3Δ ScErg11 ([3]; strain AD3Δ ScErg11 Y140H vs AD3Δ, not corrected for expression, p < 0.001): 1.5 fold; agarose diffusion susceptibility ([6]; SC5314, no efflux pump inhibitor): susceptible |
| CC(C1CC1)C(O)(Cn1cncn1)c1ccc(Cl)cc1 (centres unmarked) [cyproconazole] |  |  |  |  |  |  |  |  |  |  |  |  |  |  |  |  |  |  |  | ~ 100 fold |  |
| CC1(C)CCC(Cc2ccc(Cl)cc2)C1(O)Cn1cncn1 (centres unmarked) [metconazole] |  |  |  |  |  |  |  |  |  |  |  |  |  |  |  |  |  |  |  | ~ 100 fold |  |
| CC(C)(C)C(O)(CCc1ccc(Cl)cc1)Cn1cncn1 (centres unmarked) [tebuconazole] |  |  |  |  |  |  |  |  |  |  |  |  |  |  |  |  |  |  |  | ~ 100 fold |  |
